Source: patent publication US20050124533A1, “Glucocorticoid blocking agents for increasing blood-brain barrier permeability stan-261con” (priority 2002, published 2005)
Each block holds one compound with its values, some of them ahead of it.

Key:
[1] = in vivo; cited from earlier work
[2] = system: sensitive bacterial strains; conditions: cited from earlier work
[3] = system: dopamine metabolites HVA and DOPAC in the brain; assay: Example 1: brain dopamine metabolites (HVA, DOPAC) in adrenalectomized rats with corticosterone or placebo pellets; format: in vivo, rat; conditions: vehicle (placebo) pellet animals; haloperidol 1 mg/kg s.c. or clozapine 15 mg/kg s.c. two hours prior to sacrifice
Protocol: The implanted pellets contained either 100 mg corticosterone (for haloperidol experiments), 50 mg corticosterone (for clozapine experiments) or placebo. Two hours prior to sacrifice the animals were injected with either haloperidol (1 mg/kg s.c; RBI Natick, Mass.) or an equivalent volume of vehicle (0.3% tartaric acid, pH 5.3) or with either clozapine (15 mg/kg s.c.; RBI, Natick, Mass.) or vehicle (0.9% saline plus 0.8% acetic acid).
Animals were sacrificed by decapitation during the first four hours of the light cycle, blood collected and brains removed and frozen on dry ice and stored at −80° C. Corticosterone was measured in plasma by radioimmunoassay (ICN Biochem, Costa Mesa, Calif.) to confirm adrenalectomy and corticosterone replacement. […] Brain regions were dissected within 24-72 hours of slicing. Tissue was placed in 0.1 M perchloric acid with 0.1 mM EDTA and stored for no longer than 2 weeks at −80° C.
Dopamine metabolites homovanillic acid (HVA) and dihydroxyphenylacetic acid (DOPAC) were measured in the brains of the experimental animals. Samples were thawed, homogenized by sonication in 0.1 M perchloric acid/0.1 mM EDTA, and centrifuged for 2 minutes. Tissue pellets were dissolved in 1.0 N NaOH for protein determination (Bio-Rad, Richmond, Calif.). […] DOPAC and HVA were detected using an electrochemical detector. […]

[4] = system: blood-brain barrier (BBB) permeability; assay: Example 3: brain Amphotericin B concentration in rats given mifepristone or placebo; format: in vivo, rat; conditions: mifepristone 200 mg 10-day sustained release pellet; Amphotericin B 0.1 mg i.v.
[5] = system: blood-brain barrier (BBB) permeability; assay: Example 2: brain haloperidol and clozapine levels in rats given mifepristone or placebo pellet; format: in vivo, rat; conditions: mifepristone 200 mg 10-day sustained-release pellet
Protocol: Animal sacrifice is by decapitation during the first four hours of the light cycle. Blood is collected and brains removed and frozen on dry ice for storage at −80° C.

[6] = system: dopamine metabolites HVA and DOPAC in the brain; assay: Example 2: brain dopamine metabolites (HVA, DOPAC) in rats given mifepristone or placebo pellet; format: in vivo, rat; conditions: mifepristone 200 mg 10-day sustained-release pellet
Protocol: Rats (male Sprague Dawley 175-200 grams) are maintained, 3 rats per cage, under controlled temperature and lighting (12 hours light/12 hours dark) with food and water ad libitum. […] Two hours prior to sacrifice the animals are injected with either haloperidol (1 mg/kg s.c; […] RBI, Natick, Mass.) or vehicle (0.9% saline plus 0.8% acetic acid). Animal sacrifice is by decapitation during the first four hours of the light cycle. Blood is collected and brains removed and frozen on dry ice for storage at −80° C. Frozen brains are sliced into 250 μm sections with a cryostat. The medial prefrontal cortex (AP 13.7 to 12.2 mm) is dissected with a scalpel, the striatum (AP 10.7 to 9.7 mm) is removed with stainless steel cannulae from frozen slices and the core and shell of the nucleus accumbens (AP 10.7 to 9.7 mm) is removed. Brain regions are dissected within 24-72 hours of slicing. […] Dopamine metabolites homovanillic acid (HVA) and dihydroxyphenylacetic acid (DOPAC) are measured in the brains of the experimental animals. […] DOPAC and HVA were detected using an electrochemical detector. […] Brain clozapine levels are analyzed by National Medical Services, Inc. (Willow Grove, PN) while brain and plasma haloperidol and reduced haloperidol and plasma clozapine levels are analyzed by Analytical Psychopharmacology Laboratories (Nathan Kline Institute, Orangeburg, N.Y.), both by gas chromotography.

[7] = system: blood-brain barrier (BBB) permeability; assay: Example 4: brain ampicillin concentration in rats given mifepristone or placebo; format: in vivo, rat; conditions: mifepristone 200 mg 10-day sustained release pellet; ampicillin 1.5 mg i.v.
Protocol: Animal sacrifice is by decapitation during the first four hours of the light cycle. Blood is collected and brains removed and frozen on dry ice for storage at −80° C. Ampicillin concentration is measured in the brains of the experimental animals.

[8] = system: blood-brain barrier (BBB) permeability; assay: Example 5: brain methotrexate concentration in rats given mifepristone or placebo; format: in vivo, rat; conditions: mifepristone 200 mg 10 day sustained-release pellet; methotrexate 0.5 mg i.v.
Protocol: Animal sacrifice is by decapitation during the first four hours of the light cycle. Blood is collected and brains removed and-frozen on dry ice for storage at −80° C. Methotrexate concentration is measured in the brains of the experimental animals.

[9] = system: blood-brain barrier (BBB) permeability; assay: Example 6: brain adriamycin concentration in rats given mifepristone or placebo; format: in vivo, rat; conditions: mifepristone 2 mg s.c. four hours prior to sacrifice; adriamycin 0.5 mg i.v.
Protocol: Animal sacrifice is by decapitation during the first four hours of the light cycle. Blood is collected and brains removed and frozen on dry ice for storage at −80° C. Adriamycin concentration is measured in the brains of the experimental animals.

SMILES: Nc1nc2c(ncn2COCCO)c(=O)[nH]1 [Acyclovir, acyclovir]
concentrations achieved in the CNS as share of those achieved in plasma [1]: 30-50%

SMILES: O=C(N[C@H](CO)[C@H](O)c1ccc([N+](=O)[O-])cc1)C(Cl)Cl [Chloramphenicol, chloramphenicol]
concentration effective against sensitive bacterial strains [2]: ≤ 8 µg/mL

SMILES: O=C(CCCN1CCC(O)(c2ccc(Cl)cc2)CC1)c1ccc(F)cc1 [haloperidol]
levels of HVA and DOPAC in the brain [3]: elevated

brain Amphotericin B concentration, mifepristone-treated vs placebo [4]: greater
brain concentration of clozapine, mifepristone-treated vs placebo ([5]; clozapine 15 mg/kg s.c.): greater
brain concentration of haloperidol, mifepristone-treated vs placebo ([5]; haloperidol 1 mg/kg s.c.): greater
brain ampicillin concentration, mifepristone-treated vs placebo [7]: greater
brain methotrexate concentration, mifepristone-treated vs placebo [8]: greater
brain adriamycin concentration, mifepristone-treated vs placebo [9]: greater
SMILES: CC#C[C@]1(O)CC[C@H]2[C@@H]3CCC4=CC(=O)CCC4=C3[C@@H](c3ccc(N(C)C)cc3)C[C@@]21C [mifepristone, (11,17)-11-[4-(dimethylmino)phenyl]-17-hydroxy-17-(1-propynyl)estra-4,9-dien-3-one]
increase in brain dopamine metabolite levels following clozapine, mifepristone-treated vs placebo ([6]; clozapine 15 mg/kg s.c.): greater
increase in brain dopamine metabolite levels following haloperidol, mifepristone-treated vs placebo ([6]; haloperidol 1 mg/kg s.c.): greater
